Key:
[1] = tested on: bone marrow mesenchymal stromal cells (BMSC); test: BMSC differentiation into chondrocytes in alginic acid gel beads; format: cell-based, Japanese white rabbit; conditions: 10 μg/ml SDF-1 or 250 μg/ml AMD3100 in alginic acid gel beads vs alginic acid only, 28 days
Protocol: (§1) Bone marrows were collected from a tibia of a 15-week-old Japanese white rabbit to isolate and culture bone marrow mesenchymal stromal cells (BMSC). Isolation was carried out according to the method of Wakitani et al. (Wakitani S et al., J bone Joint Surg Am, Vol. 76, p 579, 1994). The isolated cells were incubated at 37° C. under humidified 5% CO2 and maintained in monolayer culture.
(§2) Proliferation and differentiation of BMSC were tested by embedding BMSC in alginic acid gel beads. The cells were suspended in a 2% sodium alginate solution. The suspension was dripped in a CaCl2 solution with a pipette for gelation. Ten minutes later, the resulting microcapsules were washed twice with Ca/Mg-free PBS and once with DMED-HG. The resulting beads contained 1×10^6 cells per 40 μl of beads.
Differentiation into chondrocytes in the alginic acid gel beads was tested by culturing BMSC-containing beads in a DMED-HG medium containing 100 μg/ml sodium pyruvate (ICN Biomedicals, Aurora, Ohio), 40 μg/ml proline (ICN Biomedicals), 50 μg/ml ascorbate-2-phosphate (Wako, Osaka, Japan), 1×10^−7M dexamethasone (ICN Biomedicals), 1% ITS plus mix (Sigma-Aldrich, St. Louis., Mo.), 1% antibiotics and 10 ng/ml recombinant human transforming growth factor […] (R&D Systems, Minneapolis, Minn.) (dissolved with 4 mM HCl containing 1 μg/ml bovine serum albumin) for 28 days. The medium was exchanged every three days. […]

[2] = tested on: bone marrow mesenchymal stromal cells (BMSC); test: BMSC proliferation in alginic acid gel beads (Cell Counting Kit-8); format: cell-based, Japanese white rabbit; conditions: 10 μg/ml SDF-1 or 250 μg/ml AMD3100 in alginic acid gel beads vs alginic acid only, up to 7 days, n=5
Protocol: as §1, §2
The alginic acid gel beads containing 10 μg/ml of SDF-1 or 250 μg/ml of AMD3100 were cultured in DMED-HG containing 10% FBS and 1% antibiotics for 3 hours, 1 day, 2 days, 3 days and 7 days. The cells collected from the alginic acid gel beads were washed with PBS for three times, incubated in 50 mM EDTA (Gibco BRL laboratories) at 37° C. under 5% CO2. Ten minutes later, the cells were centrifuged at 1,500 g for 5 minutes for cell collection and the number of live cells was counted with Cell Counting Kit-8 (Dojindo Laboratories, Tokyo, Japan).

`c1cc(CN2CCCNCCNCCCNCC2)ccc1CN1CCCNCCNCCCNCC1` [AMD3100] was tested, and the “differentiation of BMSC into chondrocytes” value [1] was “no difference” and the “BMSC proliferation (number of live cells)” value [2] was “no significant difference”.
